Data from paper PMC7571145, “Multistep Synthesis and In Vitro Anticancer Evaluation of 2-Pyrazolyl-Estradiol Derivatives, Pyrazolocoumarin-Estradiol Hybrids and Analogous Compounds” (Molecules, 2020).

What was measured:
MRC-5 fibroblasts = assay: MTT cytotoxicity assay on non-cancerous MRC-5 fibroblasts; format: cell-based; details: 72 h; for primary growth inhibitory screen, cell viability, MRC-5 / IC50: MTT; for primary growth inhibitory screen, cell viability, MRC-5: mean±SD, untreated control about 100; for IC50: Homo sapiens, MRC5, compounds 1-7 µM, mean ± SD, read-out: IC50 on MRC-5
Protocol: (§1) Cytotoxicity screens were performed to assess the in vitro anticancer activity of the synthesized A-ring-linked 2-pyrazoles of estradiol, the pyrazolocoumarin-estradiol hybrids, and their structurally simplified non-steroidal analogs on various cancerous cell lines such as MCF-7, PC-3, DU145, and HeLa and on non-cancerous MRC-5 fibroblasts. The 2-acetyl-phenol starting materials (4, 5, and 15) were also included for comparison. All compounds were applied in 2.5 µM concentration for 72 h. The obtained cell viability data were used to construct a heat map (Figure 2) in order to select compounds that exert cancer cell line-specific cytotoxicity. […] Furthermore, some compounds discriminated only DU145 cells and could eliminate these type of prostate cancer cells.
(§2) To understand structure-function relationships, we also included the structural analogs of the selected compounds, namely 7a (C-17 acetate of 8a), 8c (C-17 OH counterpart of 7c), and 9a (steroidal pair of 19a) into subsequent analyses. […] For this, compounds were applied on MCF-7, PC-3, DU145, and HeLa and on non-cancerous MRC-5 fibroblasts in various concentrations for 72 h or were treated with cisplatin at different concentrations. On the viability data, dose–response curves were fitted (Figure S1) and IC50 values were calculated accordingly (Table 3). In agreement with the primary cytotoxicity screen (Table S1), the obtained IC50 concentrations clearly indicated which compound was selectively effective on one or more cancer cell lines. […] Typically, acetylated steroidal pyrazoles were less favorable than deacetylated counterparts due to reduced cancer cell selectivity (7c, 10a).
(§3) To evaluate the in vitro pharmacological effects of the synthesized molecules, each compound was first dissolved in cell culture grade DMSO (Sigma) to a final concentration of 10 mM. Using MTT colorimetric assay, the cytotoxicity of these compounds was evaluated on cancerous (MCF-7, HeLa, DU145, PC-3) and non-cancerous (MRC-5) cell lines. Briefly, 5000 cells/well of each cell line were seeded in 96-well plates and were left to grow overnight in a 5% CO2 atmosphere at 37 °C. On the next day, cells were treated with each derivative separately, in case of the primary screen, or only with the selected compounds upon IC50 determination. Cells were incubated with the test compounds for 72 h in a 5% CO2 atmosphere at 37 °C. End point was measured by incubating cells for 1 h with 0.5 mg/mL of MTT reagent (Serva) dissolved in serum free culture medium. The formazan crystals formed by metabolically active cells were later dissolved in DMSO. Optical density of the obtained solutions was measured at 570 nm using a Synergy HTX plate reader. […] The analysis and conclusions were made based on three independent experiments. Normalized data were analyzed and the heat map was constructed using GraphPad Prism 7 software.

MCF-7 cells = assay: MTT cytotoxicity assay on MCF-7 cells; format: cell-based; details: for primary growth inhibitory screen, cell viability, MCF-7: 2.5 µM, 72 h, mean±SD, untreated control about 100; for IC50: Homo sapiens, MCF7, 72 h, compounds 1-7 µM, mean ± SD, read-out: IC50 on MCF-7
Protocol: as §1, §2, §3

HeLa cells = assay: MTT cytotoxicity assay on HeLa cells; format: cell-based; details: 72 h; for primary growth inhibitory screen, cell viability, HeLa: 2.5 µM, mean±SD, untreated control about 100; for IC50: Homo sapiens, HeLa, compounds 1-7 µM, mean ± SD, read-out: IC50 on HeLa
Protocol: as §1, §2, §3

PC-3 cells = assay: MTT cytotoxicity assay on PC-3 prostate cancer cells; format: cell-based; details: for primary growth inhibitory screen, cell viability, PC-3: 2.5 µM, 72 h, mean±SD, untreated control about 100; for IC50: Homo sapiens, PC-3, 72 h, compounds 1-7 µM, mean ± SD, read-out: IC50 on PC-3
Protocol: as §1, §2, §3

DU145 cells = assay: MTT cytotoxicity assay on DU145 prostate cancer cells; format: cell-based; details: for primary growth inhibitory screen, cell viability, DU145: 2.5 µM, 72 h, mean±SD, untreated control about 100; for IC50: Homo sapiens, DU-145, 72 h, compounds 1-7 µM, mean ± SD, read-out: IC50 on DU145
Protocol: as §1, §2, §3

SMILES	melting point	primary growth inhibitory screen, cell viability, MRC-5 (MRC-5 fibroblasts; 2.5 µM)	primary growth inhibitory screen, cell viability, MCF-7 (MCF-7 cells)	primary growth inhibitory screen, cell viability, HeLa (HeLa cells)	primary growth inhibitory screen, cell viability, PC-3 (PC-3 cells)	primary growth inhibitory screen, cell viability, DU145 (DU145 cells)	IC50 (MRC-5 fibroblasts)	IC50 (MCF-7 cells)	IC50 (HeLa cells)	IC50 (PC-3 cells)	IC50 (DU145 cells)	effect on non-cancerous fibroblasts (MRC-5 fibroblasts; 2.5 µM, based on the heat map)
CC(=O)O[C@H]1CC[C@H]2[C@@H]3CCc4cc(O)c(C(C)=O)cc4[C@H]3CC[C@]12C [Compound 4, 2-Acetyl-estra-1,3,5(10)-triene-3,17β-diol-17-acetate]	200 to 202 °C	≥ 100±6.6	92.7±2.2	90.0±4.3	88.5±6.5	94.2±8.6	–	–	–	–	–	–
CC(=O)c1cc2c(cc1O)CC[C@@H]1[C@@H]2CC[C@]2(C)[C@@H](O)CC[C@@H]12 [Compound 5, 2-Acetyl-estra-1,3,5(10)-triene-3,17β-diol]	189 to 191 °C	≥ 100±7	87.5	99.6±3.5	79.0±3.8	100.6±6.5	–	–	–	–	–	–
CC(=O)O[C@H]1CC[C@H]2[C@@H]3CCc4cc(O)c(-c5nn(-c6ccccc6)cc5C=O)cc4[C@H]3CC[C@]12C [Compound 7a, 2-(4′-Formyl-1′-phenyl-1′H-pyrazol-3′-yl)-estra-1,3,5(10)-triene-3,17β-diol-17-acetate]	230 to 232 °C	≥ 100±5.7	98.6±5.2	102.7±2.7	87.8±7.1	108.7±9.1	5.9 ± 1 µM	4.49 ± 1 µM	4.18 ± 1 µM	3.63 ± 1 µM	6.93 ± 1 µM	–
CC(=O)O[C@H]1CC[C@H]2[C@@H]3CCc4cc(O)c(-c5nn(-c6ccc(C)cc6)cc5C=O)cc4[C@H]3CC[C@]12C [Compound 7b, 2-(4′-Formyl-1′-(4″-tolyl)-1′H-pyrazol-3′-yl)-estra-1,3,5(10)-triene-3,17β-diol-17-acetate]	229 to 231 °C	100.4±5.1	≥ 100±4.3	100.1±2.1	98.2±6.5	98.7±15.6	–	–	–	–	–	–
CC(=O)O[C@H]1CC[C@H]2[C@@H]3CCc4cc(O)c(-c5nn(-c6ccc(Cl)cc6)cc5C=O)cc4[C@H]3CC[C@]12C [Compound 7c, 2-(1′-(4″-Chlorophenyl)-4′-formyl-1′H-pyrazol-3′-yl)-estra-1,3,5(10)-triene-3,17β-diol-17-acetate]	268 to 270 °C	78.9±4.3	57.4±10.6	94.1±1.9	36.0±4.5	70.4±3.6	4.76 ± 1.1 µM	1.99 ± 1.1 µM	5.32 ± 1.1 µM	2.14 ± 1.1 µM	3.37 ± 1 µM	no or very mild effect
